Source: ChEMBL document CHEMBL1201862, “PubChem BioAssay data set” (2004)
Active and inactive are the calls of the source.

Experiments:
[1] = fluconazole-exposed Candida albicans growth modulators – fluorescence, retest, confirmation (AID 2467); format: functional, cell-based
[2] = biological target: T1, Heat shock factor protein 1 (Mus musculus, UniProt P38532); experiment: enhancement of HSF1-driven luciferase signal – cell-based, NIH3T3, luminescence, dose retest, confirmation (AID 435004); format: functional;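 note: stress induced by proteasome inhibitor MG132 added 30 min after compound; luciferase reporter driven by HSF1 response element in NIH3T3 cells; actives raise luminescence as potentiators of the MG132 stress response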
T1 sequence (P38532 whole entry): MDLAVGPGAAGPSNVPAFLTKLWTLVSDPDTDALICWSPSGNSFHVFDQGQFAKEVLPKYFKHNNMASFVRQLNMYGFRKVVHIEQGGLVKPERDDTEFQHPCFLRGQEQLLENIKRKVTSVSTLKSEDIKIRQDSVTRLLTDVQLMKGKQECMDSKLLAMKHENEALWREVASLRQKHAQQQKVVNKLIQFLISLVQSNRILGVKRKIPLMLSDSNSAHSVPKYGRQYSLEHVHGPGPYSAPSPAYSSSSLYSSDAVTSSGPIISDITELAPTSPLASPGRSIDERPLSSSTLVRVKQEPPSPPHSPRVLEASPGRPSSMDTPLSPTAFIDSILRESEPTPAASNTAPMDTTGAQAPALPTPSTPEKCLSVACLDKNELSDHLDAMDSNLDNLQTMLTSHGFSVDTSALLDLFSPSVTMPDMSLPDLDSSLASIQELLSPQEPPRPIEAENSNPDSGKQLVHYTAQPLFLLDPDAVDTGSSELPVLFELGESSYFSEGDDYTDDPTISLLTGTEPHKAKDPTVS

[3] = biological target: T2, Calpain-2 catalytic subunit (Sus scrofa, UniProt P43367); experiment: m-calpain protease blockers, concentration series – biochemical, fluorogenic peptide substrate, dose response (AID 1420); format: functional
T2 sequence (P43367 whole entry): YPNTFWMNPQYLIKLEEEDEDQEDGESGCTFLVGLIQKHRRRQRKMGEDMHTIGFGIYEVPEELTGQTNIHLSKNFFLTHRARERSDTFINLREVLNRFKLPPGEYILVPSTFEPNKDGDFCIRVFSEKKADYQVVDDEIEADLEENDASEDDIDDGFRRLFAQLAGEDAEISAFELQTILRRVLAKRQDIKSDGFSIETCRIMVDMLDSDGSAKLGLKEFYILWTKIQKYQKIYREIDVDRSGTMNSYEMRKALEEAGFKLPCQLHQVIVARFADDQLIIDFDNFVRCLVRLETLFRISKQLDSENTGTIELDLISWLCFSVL

HEK293 = experiment: Fluorescence-based counterscreen for potentiators or agonists of NPY-Y2: cell-based high-throughput dose response assay to identify inhibitors of cyclic nucleotide gated ion channel (CNGC) activity. In this assay, the parental HEK293 cell line transfected with a cyclic-nucleotide gated ion channel (CNGC)-based cAMP sensor is used to measure inhibition of isoproterenol-induced CNGC activity by test compound.; format: functional; conditions: Homo sapiens;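 note: stimulus is 1 µM isoproterenol at EC100 plus PDE inhibitor Ro 20-1724 at 25 µM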
[4] = biological target: T3, Neuropeptide Y receptor type 2 (Homo sapiens, UniProt P49146); experiment: Fluorescence-based cell-based high-throughput dose response assay for agonists of NPY-Y2. [Related pubchem assays: 1703 (Screening assay (CNGC inhibitors).), 1359 (Screening assay (NPY-Y2 potentiators or agonists).), 1304 (Screening assay (NPY-Y1 potentiators or agonists).), 1710 (Screening assay (NPY-Y2 agonists).), 1791 (Summary AID.)]; format: functional
T3 sequence (P49146 whole entry): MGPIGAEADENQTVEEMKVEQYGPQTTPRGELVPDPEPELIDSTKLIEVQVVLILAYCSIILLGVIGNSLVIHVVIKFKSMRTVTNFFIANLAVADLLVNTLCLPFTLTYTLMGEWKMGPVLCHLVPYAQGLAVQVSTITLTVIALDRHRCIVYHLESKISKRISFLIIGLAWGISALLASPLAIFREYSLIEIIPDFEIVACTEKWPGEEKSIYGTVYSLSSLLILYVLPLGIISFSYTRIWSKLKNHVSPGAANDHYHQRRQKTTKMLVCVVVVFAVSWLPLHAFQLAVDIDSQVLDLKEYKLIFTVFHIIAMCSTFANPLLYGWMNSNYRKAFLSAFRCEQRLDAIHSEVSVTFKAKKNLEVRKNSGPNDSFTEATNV

[5] = biological target: T4, Neuropeptide Y receptor type 1 (Homo sapiens, UniProt P25929); experiment: Fluorescence-based counterscreen for agonists of NPY-Y2: cell-based high-throughput dose response assay for agonists of NPY-Y1.; format: functional
T4 sequence (P25929 whole entry): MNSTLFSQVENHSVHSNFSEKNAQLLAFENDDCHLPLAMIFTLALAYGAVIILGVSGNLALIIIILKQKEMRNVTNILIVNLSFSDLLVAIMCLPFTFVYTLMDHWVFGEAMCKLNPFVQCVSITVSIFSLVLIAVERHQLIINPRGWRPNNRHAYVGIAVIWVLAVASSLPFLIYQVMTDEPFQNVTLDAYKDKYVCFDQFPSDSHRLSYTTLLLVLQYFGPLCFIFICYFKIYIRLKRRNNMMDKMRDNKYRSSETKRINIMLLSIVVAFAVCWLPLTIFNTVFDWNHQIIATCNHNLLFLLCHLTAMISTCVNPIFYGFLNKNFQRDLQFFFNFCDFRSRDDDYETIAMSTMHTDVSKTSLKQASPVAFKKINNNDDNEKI

[6] = NIH-3T3 fibroblast cytotoxicity, dose response, cytotoxicity control, cell-based, fluorescence, Alamar Blue, secondary assay (AID 2327); format: functional;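 note: NIH-3T3 mouse fibroblasts cultured with fluconazole at 8 µg/mL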
[7] = biological target: Ras and Rab interactor 1/Tyrosine-protein kinase ABL1 (Homo sapiens, UniProt P00519+Q13671); format: functional;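 note: biochemical TR-FRET dose-response test measuring inhibition of binding between Rin1 and Abl proteins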
[8] = biological target: Peroxisome proliferator-activated receptor gamma/Nuclear receptor corepressor 2 (Homo sapiens, UniProt P37231+Q9Y618); format: functional
[9] = biological target: Photoreceptor-specific nuclear receptor (Homo sapiens, UniProt Q9Y5X4); format: functional;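 note: potency for compounds that break the NR2E3 corepressor complex and count as activators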
[10] = biological target: T5, Ubiquitin-conjugating enzyme E2 N (Homo sapiens, UniProt P61088); format: functional;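 note: Dose-response confirmation in a TR-FRET assay detecting UBC13-driven polyubiquitin chain formation, inhibition measured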
T5 sequence (P61088 whole entry): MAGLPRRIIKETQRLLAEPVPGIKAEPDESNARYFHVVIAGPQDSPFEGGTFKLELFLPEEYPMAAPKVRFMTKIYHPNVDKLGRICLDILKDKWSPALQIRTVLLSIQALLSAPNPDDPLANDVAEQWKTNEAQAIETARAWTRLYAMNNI

[11] = test system: Streptococcus sp. 'group A'; experiment: Streptococcus pyogenes SK(-)GAS viability under kanamycin – luminescence, BacTiterGlo, confirmation, counter-screen for streptokinase expression inhibitor project, dose response (AID 1900); format: functional, organism-based
Streptokinase A = biological target: T6, Streptokinase A (Streptococcus pyogenes serotype M1, UniProt P10520); experiment: viability-normalized secreted streptokinase activity reduction – plasminogen activation absorbance, OD405, dose response (AID 1914); format: functional, Streptococcus pyogenes M1 GAS;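 note: secreted streptokinase activity via plasminogen activation per viability signal from cell pellet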
T6 sequence (P10520 whole entry): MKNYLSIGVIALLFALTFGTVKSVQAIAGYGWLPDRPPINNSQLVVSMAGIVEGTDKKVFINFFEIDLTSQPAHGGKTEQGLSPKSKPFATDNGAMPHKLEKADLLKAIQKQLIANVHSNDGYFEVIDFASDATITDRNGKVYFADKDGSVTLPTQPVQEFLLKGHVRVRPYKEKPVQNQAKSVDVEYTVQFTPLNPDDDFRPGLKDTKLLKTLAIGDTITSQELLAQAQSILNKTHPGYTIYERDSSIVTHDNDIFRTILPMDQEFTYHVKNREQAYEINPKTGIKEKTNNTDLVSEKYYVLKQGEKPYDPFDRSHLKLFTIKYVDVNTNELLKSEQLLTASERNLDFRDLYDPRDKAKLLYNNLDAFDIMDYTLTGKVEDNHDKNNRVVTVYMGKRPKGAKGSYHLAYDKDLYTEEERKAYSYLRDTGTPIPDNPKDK

[12] = biological target: T7, Alkaline phosphatase, tissue-nonspecific isozyme (Homo sapiens, UniProt P05186)
T7 sequence (P05186 whole entry): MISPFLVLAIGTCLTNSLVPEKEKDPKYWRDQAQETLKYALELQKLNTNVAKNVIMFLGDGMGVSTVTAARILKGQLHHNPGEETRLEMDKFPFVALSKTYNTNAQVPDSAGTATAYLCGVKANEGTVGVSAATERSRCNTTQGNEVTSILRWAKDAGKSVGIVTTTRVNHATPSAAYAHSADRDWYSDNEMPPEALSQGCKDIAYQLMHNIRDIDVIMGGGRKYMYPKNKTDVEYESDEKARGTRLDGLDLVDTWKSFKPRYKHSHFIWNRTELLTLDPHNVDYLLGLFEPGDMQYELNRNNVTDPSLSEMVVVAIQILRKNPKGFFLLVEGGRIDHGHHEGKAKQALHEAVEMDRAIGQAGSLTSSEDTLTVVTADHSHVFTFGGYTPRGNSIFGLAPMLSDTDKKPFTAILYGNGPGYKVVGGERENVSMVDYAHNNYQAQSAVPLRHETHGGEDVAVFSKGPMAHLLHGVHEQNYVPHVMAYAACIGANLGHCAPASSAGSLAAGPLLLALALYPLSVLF

Streptococcus = experiment: GAS UMAA2166 growth inhibition – luminescence, BacTiterGlo, counter-screen for streptokinase expression inhibitor project, dose response (AID 1915); format: functional, organism-based;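 note: potency for reduction of bacterial viability or growth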
[13] = biological target: Acyl-homoserine lactone acylase PvdQ (Pseudomonas aeruginosa (strain LESB58), UniProt Q9I194); experiment: PvdQ acylase enzyme activity blockers – biochemical, fluorescence, plate reader and imaging, cherry-picks, dose response (AID 493231)
[14] = biological target: Peroxisome proliferator-activated receptor gamma/Nuclear receptor coactivator 1 (Homo sapiens, UniProt P37231); experiment: TR-FRET dose response biochemical High Throughput Screening assay for agonists of the steroid receptor coactivator 1 (SRC-1) recruitment by the peroxisome proliferator-activated receptor gamma (PPAR gamma): non-selective agonists. [Related pubchem assays (depositor defined):AID1300, AID1808, AID504735, AID631]; format: protein assay
Genome polyprotein = Genome polyprotein (Hepatitis C virus, UniProt Q2Q167); experiment: disruption of hepatitis C core self-association – biochemical, TR-FRET, dose response (AID 2159); set-up: species or system Hepacivirus hominis;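 note: blocks dimerization of HCV core protein measured by TR-FRET between tagged core106 pairs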
Major prion protein = Major prion protein (Homo sapiens, UniProt P04156); format: functional, cell-based
[15] = biological target: Peroxisome proliferator-activated receptor gamma/Nuclear receptor coactivator 2 (Homo sapiens, UniProt P37231); experiment: (§1) TR-FRET dose response biochemical High Throughput Screening assay for agonists of the steroid receptor coactivator 2 (SRC-2) recruitment by the peroxisome proliferator-activated receptor gamma (PPAR gamma): non-selective agonists. [Related pubchem assays: 1297, 1032 ]; format: functional
[16] = biological target: Peroxisome proliferator-activated receptor gamma/Nuclear receptor coactivator 3 (Homo sapiens, UniProt P37231); experiment: as §1, with “3 (SRC-3)” for “2 (SRC-2)”, “1301 (Confirmation screen.), 1048 (Primary screen.)]” for “1297, 1032 ]”; format: functional
Aspartyl aminopeptidase = Aspartyl aminopeptidase (Plasmodium falciparum 3D7, UniProt Q8I2J3)
Procathepsin L = Procathepsin L (Homo sapiens, UniProt P07711)
[17] = M. tuberculosis H37Rv growth inhibitors, H37Rv strain (AID 1626); format: functional
Cytochrome P450 2D6 = Cytochrome P450 2D6 (Homo sapiens, UniProt P10635);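 note: CYP2D6 member of a cytochrome P450 panel assay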

Chain of Peroxisome proliferator-activated receptor gamma/Nuclear receptor corepressor 2 (P37231 whole entry): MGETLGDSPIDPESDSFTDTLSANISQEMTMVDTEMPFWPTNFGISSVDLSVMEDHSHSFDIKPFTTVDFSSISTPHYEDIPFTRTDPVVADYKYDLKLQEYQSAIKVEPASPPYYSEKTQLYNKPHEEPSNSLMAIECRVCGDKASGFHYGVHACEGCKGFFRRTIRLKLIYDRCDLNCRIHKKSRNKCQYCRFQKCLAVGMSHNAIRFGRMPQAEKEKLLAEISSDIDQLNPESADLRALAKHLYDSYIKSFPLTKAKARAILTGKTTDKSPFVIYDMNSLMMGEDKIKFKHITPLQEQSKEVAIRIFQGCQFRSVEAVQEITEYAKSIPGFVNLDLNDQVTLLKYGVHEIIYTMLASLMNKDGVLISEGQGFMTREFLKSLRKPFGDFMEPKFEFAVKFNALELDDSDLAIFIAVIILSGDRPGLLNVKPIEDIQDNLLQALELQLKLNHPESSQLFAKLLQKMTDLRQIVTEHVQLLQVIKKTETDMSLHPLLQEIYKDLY
Chain of Peroxisome proliferator-activated receptor gamma/Nuclear receptor corepressor 2 (Q9Y618 whole entry): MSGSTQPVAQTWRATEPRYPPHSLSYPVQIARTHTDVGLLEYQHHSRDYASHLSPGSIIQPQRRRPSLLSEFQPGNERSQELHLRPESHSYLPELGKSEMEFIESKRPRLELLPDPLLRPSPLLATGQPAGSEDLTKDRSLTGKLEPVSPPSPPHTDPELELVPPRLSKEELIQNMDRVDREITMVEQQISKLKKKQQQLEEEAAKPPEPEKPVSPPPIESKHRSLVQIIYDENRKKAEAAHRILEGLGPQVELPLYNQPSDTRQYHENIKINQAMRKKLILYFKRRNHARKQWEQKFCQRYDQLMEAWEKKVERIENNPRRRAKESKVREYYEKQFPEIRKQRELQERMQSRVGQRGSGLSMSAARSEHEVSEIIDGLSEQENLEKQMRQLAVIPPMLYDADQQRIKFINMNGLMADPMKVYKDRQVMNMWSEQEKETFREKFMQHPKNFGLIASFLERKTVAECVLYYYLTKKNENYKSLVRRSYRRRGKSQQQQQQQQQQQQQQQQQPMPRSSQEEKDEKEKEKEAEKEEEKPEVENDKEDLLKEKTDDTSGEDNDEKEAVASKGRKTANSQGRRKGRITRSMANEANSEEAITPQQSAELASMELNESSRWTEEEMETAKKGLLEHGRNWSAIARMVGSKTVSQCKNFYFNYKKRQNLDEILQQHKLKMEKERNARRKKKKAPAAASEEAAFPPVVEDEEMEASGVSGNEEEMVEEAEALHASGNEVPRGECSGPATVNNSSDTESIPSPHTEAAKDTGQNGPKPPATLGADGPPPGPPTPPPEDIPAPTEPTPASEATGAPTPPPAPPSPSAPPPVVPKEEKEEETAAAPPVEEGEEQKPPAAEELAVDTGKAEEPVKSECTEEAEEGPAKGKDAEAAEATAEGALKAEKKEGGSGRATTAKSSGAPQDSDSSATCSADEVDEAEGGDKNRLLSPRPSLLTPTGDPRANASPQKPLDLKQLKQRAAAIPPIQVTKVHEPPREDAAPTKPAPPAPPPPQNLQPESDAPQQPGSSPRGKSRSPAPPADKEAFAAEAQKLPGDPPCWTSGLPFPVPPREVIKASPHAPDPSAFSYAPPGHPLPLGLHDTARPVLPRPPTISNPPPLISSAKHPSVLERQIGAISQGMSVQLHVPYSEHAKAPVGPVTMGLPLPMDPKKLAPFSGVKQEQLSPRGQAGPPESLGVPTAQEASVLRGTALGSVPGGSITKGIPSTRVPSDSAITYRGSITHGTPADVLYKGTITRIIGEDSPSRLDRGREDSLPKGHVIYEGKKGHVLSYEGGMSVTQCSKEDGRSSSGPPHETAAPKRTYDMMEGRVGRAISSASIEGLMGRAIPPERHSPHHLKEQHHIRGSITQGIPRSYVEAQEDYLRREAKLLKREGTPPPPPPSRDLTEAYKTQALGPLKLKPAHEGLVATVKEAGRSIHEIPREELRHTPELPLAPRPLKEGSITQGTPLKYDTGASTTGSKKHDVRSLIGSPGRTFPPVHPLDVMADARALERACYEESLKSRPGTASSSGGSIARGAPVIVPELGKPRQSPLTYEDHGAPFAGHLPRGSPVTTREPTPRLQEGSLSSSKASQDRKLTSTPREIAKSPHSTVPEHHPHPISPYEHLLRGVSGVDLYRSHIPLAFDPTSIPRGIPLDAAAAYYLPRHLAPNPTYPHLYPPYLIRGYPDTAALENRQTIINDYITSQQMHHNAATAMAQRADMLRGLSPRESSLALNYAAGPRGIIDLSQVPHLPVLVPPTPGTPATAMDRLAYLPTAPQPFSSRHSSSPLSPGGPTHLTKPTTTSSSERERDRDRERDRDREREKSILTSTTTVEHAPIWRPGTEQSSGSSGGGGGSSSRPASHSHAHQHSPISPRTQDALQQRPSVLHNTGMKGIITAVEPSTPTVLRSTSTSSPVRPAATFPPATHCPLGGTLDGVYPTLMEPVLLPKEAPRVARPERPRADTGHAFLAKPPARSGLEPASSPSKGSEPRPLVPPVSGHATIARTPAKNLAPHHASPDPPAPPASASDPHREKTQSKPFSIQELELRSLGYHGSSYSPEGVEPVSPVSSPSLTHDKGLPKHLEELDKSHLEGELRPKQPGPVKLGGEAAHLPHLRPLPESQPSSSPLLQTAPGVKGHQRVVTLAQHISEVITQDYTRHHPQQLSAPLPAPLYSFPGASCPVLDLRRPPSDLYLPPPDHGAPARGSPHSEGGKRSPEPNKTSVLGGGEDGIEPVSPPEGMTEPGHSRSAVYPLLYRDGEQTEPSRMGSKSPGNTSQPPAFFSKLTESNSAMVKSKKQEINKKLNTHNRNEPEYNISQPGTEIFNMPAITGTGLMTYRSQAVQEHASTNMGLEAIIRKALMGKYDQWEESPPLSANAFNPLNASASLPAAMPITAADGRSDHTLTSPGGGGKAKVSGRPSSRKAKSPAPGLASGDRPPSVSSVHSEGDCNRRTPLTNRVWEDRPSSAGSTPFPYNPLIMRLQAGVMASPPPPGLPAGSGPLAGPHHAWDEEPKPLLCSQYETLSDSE
Chain of Photoreceptor-specific nuclear receptor (Q9Y5X4 whole entry): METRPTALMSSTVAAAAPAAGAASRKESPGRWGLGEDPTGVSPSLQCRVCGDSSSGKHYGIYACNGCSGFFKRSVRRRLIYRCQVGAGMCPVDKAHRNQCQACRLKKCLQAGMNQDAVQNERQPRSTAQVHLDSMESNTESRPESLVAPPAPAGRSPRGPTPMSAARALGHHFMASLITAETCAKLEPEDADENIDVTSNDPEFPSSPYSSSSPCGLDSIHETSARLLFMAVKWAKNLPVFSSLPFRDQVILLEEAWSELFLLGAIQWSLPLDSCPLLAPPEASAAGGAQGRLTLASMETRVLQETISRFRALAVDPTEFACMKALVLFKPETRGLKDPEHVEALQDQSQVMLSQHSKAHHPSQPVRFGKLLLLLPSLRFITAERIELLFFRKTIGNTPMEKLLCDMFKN
Chain of Aspartyl aminopeptidase (Q8I2J3 whole entry): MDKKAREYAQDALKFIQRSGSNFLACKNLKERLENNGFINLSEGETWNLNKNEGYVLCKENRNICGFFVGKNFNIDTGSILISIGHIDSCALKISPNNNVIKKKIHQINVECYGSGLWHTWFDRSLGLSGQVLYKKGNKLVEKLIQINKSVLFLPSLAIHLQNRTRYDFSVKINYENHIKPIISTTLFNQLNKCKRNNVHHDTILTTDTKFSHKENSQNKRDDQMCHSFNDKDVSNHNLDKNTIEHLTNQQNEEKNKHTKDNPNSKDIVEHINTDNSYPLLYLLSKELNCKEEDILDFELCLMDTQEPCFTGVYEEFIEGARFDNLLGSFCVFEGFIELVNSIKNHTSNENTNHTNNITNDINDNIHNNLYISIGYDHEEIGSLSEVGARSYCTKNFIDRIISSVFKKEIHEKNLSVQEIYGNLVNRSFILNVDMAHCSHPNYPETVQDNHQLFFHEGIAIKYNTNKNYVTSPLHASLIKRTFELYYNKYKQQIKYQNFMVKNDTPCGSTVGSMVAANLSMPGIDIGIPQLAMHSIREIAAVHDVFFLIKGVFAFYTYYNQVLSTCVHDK
Chain of Procathepsin L (P07711 whole entry): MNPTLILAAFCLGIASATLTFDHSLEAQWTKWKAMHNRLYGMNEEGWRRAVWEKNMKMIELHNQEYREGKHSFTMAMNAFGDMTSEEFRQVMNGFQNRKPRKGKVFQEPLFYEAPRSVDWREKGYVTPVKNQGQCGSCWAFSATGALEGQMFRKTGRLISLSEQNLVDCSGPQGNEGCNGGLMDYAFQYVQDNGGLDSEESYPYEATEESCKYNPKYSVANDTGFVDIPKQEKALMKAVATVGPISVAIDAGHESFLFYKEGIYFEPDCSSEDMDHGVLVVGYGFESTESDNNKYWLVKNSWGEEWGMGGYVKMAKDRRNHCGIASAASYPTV
Chain of Acyl-homoserine lactone acylase PvdQ (Q9I194 24-193 limits assumed): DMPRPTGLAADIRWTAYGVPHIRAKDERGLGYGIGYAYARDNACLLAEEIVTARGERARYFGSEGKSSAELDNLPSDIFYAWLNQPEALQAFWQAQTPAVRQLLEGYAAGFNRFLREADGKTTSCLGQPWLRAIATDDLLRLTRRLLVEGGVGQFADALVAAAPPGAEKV
Chain of Acyl-homoserine lactone acylase PvdQ (Q9I194 217-762 limits assumed): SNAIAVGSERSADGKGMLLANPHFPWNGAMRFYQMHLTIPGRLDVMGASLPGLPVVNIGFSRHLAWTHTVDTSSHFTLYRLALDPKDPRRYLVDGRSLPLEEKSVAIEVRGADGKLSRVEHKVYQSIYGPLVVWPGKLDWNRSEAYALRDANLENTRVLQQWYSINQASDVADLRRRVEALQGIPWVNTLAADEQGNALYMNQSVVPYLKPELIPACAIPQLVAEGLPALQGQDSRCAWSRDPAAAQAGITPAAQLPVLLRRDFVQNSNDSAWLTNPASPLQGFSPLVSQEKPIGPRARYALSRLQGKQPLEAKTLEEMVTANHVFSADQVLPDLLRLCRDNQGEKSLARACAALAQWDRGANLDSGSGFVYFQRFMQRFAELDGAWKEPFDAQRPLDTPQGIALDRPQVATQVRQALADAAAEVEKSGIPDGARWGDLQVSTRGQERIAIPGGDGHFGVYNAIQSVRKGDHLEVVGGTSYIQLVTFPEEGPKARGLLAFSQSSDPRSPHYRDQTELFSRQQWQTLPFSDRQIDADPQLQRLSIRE

O=C(COc1ccc(Cl)cc1)Nc1ncc([N+](=O)[O-])s1
EC50 [1]: 0.166 µM (active)
EC50 [2]: 0.382 µM (active)
IC50 [3]: 24.9 µM (not active)
EC50 (HEK293): > 35.4 µM (not active)
EC50 [4]: > 35.4 µM (not active)
EC50 [5]: 33.8 µM (not active)
EC50 [6]: 36 µM (active)

Cc1cccc(C)c1NC(=O)CCCCCC1NC(=O)NC1C (configuration not stated)
IC50 [7]: 0.106 µM (active)
IC50 [8]: > 39.8 µM (not active)
IC50 [9]: 3.85 µM (active)

COc1ccc(Cl)cc1NC(=O)CN1CCC(n2nnc3cc(C)ccc32)CC1
IC50 [10]: > 20 µM (inactive)
EC50 [11]: 12.2 µM (active)
EC50 (Streptokinase A): 26.4 µM (active)
EC50 [12]: 70.6 µM (not active)
EC50 (Streptococcus): 93.4 µM (active)

Cc1cccc(C(C#N)c2ccc(Cl)nn2)c1 (configuration not stated)
EC50 [2]: > 260 µM (inactive)
AC50 [13]: 2.01 µM (active)

Cc1cc(Br)c2nc3c(c(C(=O)O)c2c1)CCCCC3
EC50 [14]: > 79.4 µM (inactive)
IC50 (Genome polyprotein): > 49.8 µM (not active)
IC50 (cells): > 138 µM (inactive)
IC50 (Major prion protein): 0.141 µM (active)
IC50 [8]: 0.604 µM (active)
EC50 [15]: 12.8 µM (not active)
IC50 [9]: 1.38 µM (active)
EC50 [16]: > 79.4 µM (not active)

Nc1nncn1C(=O)CCCOc1ccc(Cl)cc1Cl
IC50 (Aspartyl aminopeptidase): 2.6 µM (active)
IC50 (Procathepsin L): > 59.6 µM (not active)

CCN(CC)S(=O)(=O)c1ccc(C(=O)Nn2cnnc2)cc1
IC50 (Aspartyl aminopeptidase): 1.07 µM (active)
IC50 (Procathepsin L): > 59.6 µM (not active)

CC(=O)OCCCN1c2ccccc2Nc2nnc(-c3ccccc3)cc21
IC50 [17]: > 100 µM (active)
EC50 [12]: 71.8 µM (not active)
AC50 (Cytochrome P450 2D6): 15.8 µM (inconclusive)
